Assay results as given in US20180169019A1, “PROCESS FOR THE PREPARATION OF POROUS MICROPARTICLES” (BAYER PHARMA AKTIENGESELLSCHAFT, priority 2015, published 2018).

Assay: Solubility in water and organic solvents
Format: physicochemical

solubility in acetone: slightly soluble
solubility in ethanol, methanol, ethyl acetate: very slightly soluble
solubility in water and dichloromethane, acetonitrile: practically insoluble
Compound: O=C(O)CCCCN(CCc1ccccc1OCc1ccc(CCc2ccccc2)cc1)Cc1ccc(C(=O)O)cc1 [Cinaciguat, 4-[((4-carboxybutyl)-{2-[(4-phenethylbenzyl)oxy]phenethyl}amino)methyl]benzoic acid]
